Test results taken from US12433913B2, “Treatment of acute respiratory disease syndrome (ARDS) with polysulfated polysaccharides” (Paradigm Biopharmaceuticals Ltd., priority 2020, dated 2025).
Values joined by “and” are separate entries in the source; they are usually repeats but may differ in a detail not shown here. Identical values can stand only once. Like-named read-outs stand apart in the source and are kept apart here.

Experiments:
SARS-CoV-2 [1] = type: cell-based, Vero (Africa Green Monkey kidney epithelium); details: for PFU/well: replicates
SARS-CoV-2 [2] = type: cell-based, Vero (Africa Green Monkey kidney epithelium); details: for PFU/well: replicates; remark: listed apart in the source
SARS-CoV-2 [3] = type: cell-based, Vero (Africa Green Monkey kidney epithelium); details: for PFU/well: replicates; remark: listed apart in the source
[4] = test system: H1N1 PR-8 influenza strain; test: Influenza virus-induced ARDS mouse model (Study 1); type: in vivo, C57BL/6J mice
alphavirus = details: within 3 to 10 days post PPS treatment in infected animals; cited from earlier work
IL-8, MCP-1 and MIP-1a = details: cited from earlier work
[5] = biological target: T1, human leukocyte elastase (human neutrophil elastase) (Homo sapiens, UniProt P08246); details: cited from earlier work
T1 sequence (P08246 30-267): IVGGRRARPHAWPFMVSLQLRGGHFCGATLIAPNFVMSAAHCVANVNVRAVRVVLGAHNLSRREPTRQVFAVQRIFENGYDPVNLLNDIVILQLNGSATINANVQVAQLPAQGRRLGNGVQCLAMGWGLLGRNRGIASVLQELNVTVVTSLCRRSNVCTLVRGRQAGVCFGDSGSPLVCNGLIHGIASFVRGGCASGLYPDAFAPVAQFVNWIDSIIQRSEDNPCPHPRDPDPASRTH

allergen induced asthma = details: intra-tracheal PPS; cited from earlier work
[6] = 2 mg/kg twice weekly subcutaneously; cited from earlier work

pentosan polysulfate [PPS]
PFU/well (SARS-CoV-2 [1]; PPS 12.5 μg/ml on Vero cells 30 min prior to infection with 50 PFU): 35 PFU/well and 33 PFU/well and 34 PFU/well and 40 PFU/well and 41 PFU/well and 39 PFU/well and 36 PFU/well and 37 PFU/well
PFU/well (SARS-CoV-2 [1]; PPS 25 μg/ml on Vero cells 30 min prior to infection with 50 PFU): 29 PFU/well and 31 PFU/well and 27 PFU/well and 25 PFU/well
PFU/well (SARS-CoV-2 [1]; PPS 200 μg/ml on Vero cells 30 min prior to infection with 50 PFU): 18 PFU/well (2×) and 16 PFU/well (2×) and 20 PFU/well and 21 PFU/well and 17 PFU/well and 19 PFU/well
Maximum inhibition of plaque formation (SARS-CoV-2 [1]; top dose of 200 μg/ml, cells treated 30 min prior to infection): 60%
PFU/well (SARS-CoV-2 [2]; PPS 12.5 μg/ml incubated with virus inoculum 30 min prior to addition to Vero cells): 31 PFU/well and 33 PFU/well and 39 PFU/well and 34 PFU/well and 42 PFU/well and 38 PFU/well and 40 PFU/well and 37 PFU/well
PFU/well (SARS-CoV-2 [2]; PPS 25 μg/ml incubated with virus inoculum 30 min prior to addition to Vero cells): 25 PFU/well and 28 PFU/well (2×) and 31 PFU/well (2×) and 34 PFU/well and 33 PFU/well and 35 PFU/well
PFU/well (SARS-CoV-2 [2]; PPS 50 μg/ml incubated with virus inoculum 30 min prior to addition to Vero cells): 24 PFU/well and 21 PFU/well and 28 PFU/well and 31 PFU/well and 32 PFU/well and 30 PFU/well and 29 PFU/well and 26 PFU/well
PFU/well (SARS-CoV-2 [2]; PPS 100 μg/ml incubated with virus inoculum 30 min prior to addition to Vero cells): 19 PFU/well and 17 PFU/well and 23 PFU/well and 26 PFU/well and 22 PFU/well (2×) and 25 PFU/well and 27 PFU/well
PFU/well (SARS-CoV-2 [2]; PPS 200 μg/ml incubated with virus inoculum 30 min prior to addition to Vero cells): 16 PFU/well and 12 PFU/well and 20 PFU/well (2×) and 22 PFU/well and 21 PFU/well and 23 PFU/well and 24 PFU/well
Maximum inhibition of plaque formation (SARS-CoV-2 [2]; top dose of 200 μg/ml, virus treated 30 min prior to infection): 56%
PFU/well (SARS-CoV-2 [3]; PPS 12.5 μg/ml incubated with both virus and cells 30 min prior to infection): 18 PFU/well and 19 PFU/well and 17 PFU/well and 22 PFU/well and 20 PFU/well (2×) and 25 PFU/well and 26 PFU/well
PFU/well (SARS-CoV-2 [3]; PPS 25 μg/ml incubated with both virus and cells 30 min prior to infection): 18 PFU/well and 15 PFU/well (2×) and 20 PFU/well and 21 PFU/well and 19 PFU/well and 22 PFU/well and 17 PFU/well
PFU/well (SARS-CoV-2 [3]; PPS 50 μg/ml incubated with both virus and cells 30 min prior to infection): 12 PFU/well and 14 PFU/well (2×) and 15 PFU/well and 13 PFU/well and 18 PFU/well (2×) and 16 PFU/well
PFU/well (SARS-CoV-2 [3]; PPS 100 μg/ml incubated with both virus and cells 30 min prior to infection): 8 PFU/well and 12 PFU/well and 11 PFU/well and 7 PFU/well and 13 PFU/well and 10 PFU/well and 16 PFU/well and 9 PFU/well
PFU/well (SARS-CoV-2 [3]; PPS 200 μg/ml incubated with both virus and cells 30 min prior to infection): 6 PFU/well and 12 PFU/well and 10 PFU/well (2×) and 8 PFU/well and 11 PFU/well and 14 PFU/well and 13 PFU/well
Maximum inhibition of plaque formation (SARS-CoV-2 [3]; top dose of 200 μg/ml, virus and cells treated 30 min prior to infection): 77%
Number of nuclei/mm^2 in lung sections ([4]; 3 mg/kg daily ip, Day 8, compared to vehicle treated animals): statistically significant reduction
Number of nuclei/mm^2 in lung sections ([4]; 3 mg/kg daily sc, Day 8, compared to vehicle treated animals): statistically significant reduction
Level of nuclei/mm^2 in infected PPS treated animals relative to uninfected animals ([4]; 3 mg/kg daily, Day 8): comparable to uninfected animals
Weight loss ([4]; 3 mg/kg daily, ip or sc, compared to infected animals treated with vehicle): reduced weight loss
Cellular infiltration in representative lung sections ([4]; 3 mg/kg ip or sc, Day 8, compared to vehicle treated animals): reduced cellular infiltration
Fibrotic response (collagen, Masson's Trichrome stain) ([4]; 3 mg/kg sc from Day 0 or Day 2 post-infection, Day 21, compared to vehicle): fibrotic response was reduced
Oxygen saturation levels ([4]; 3 mg/kg sc from Day 0 or Day 2 post-infection, measured Day 6 and Day 8, compared to vehicle treated infected animals): improved oxygen saturation levels
Cytokine response (IL-1a; IL-2, IL-6, MIP1a and CCL2) (alphavirus): reduction
Cell movement induced by IL-8, MCP-1 and MIP-1a (IL-8, MCP-1 and MIP-1a): inhibits cell movement
Activity on human leukocyte elastase [5]: antagonist
Airway hyper-reactivity (allergen induced asthma): inhibited
Lung compliance (allergen induced asthma): increased
Total number of infiltrating leukocytes and neutrophils in the bronchoalveolar fluid (allergen induced asthma): significantly reduced
Total protein content in the bronchoalveolar fluid (allergen induced asthma): significantly reduced
Effect on blood coagulation [6]: no lasting effect on blood coagulation
